The source of these data is patent US20190177279A1, “CARBOXYLIC ACID AROMATIC 1,2-CYCLOPROPYLAMIDES” (Bayer Pharma Aktiengesellschaft, priority 2017, published 2019).

Like-named read-outs stand apart in the source and are kept apart here.

The test system of one data set is IL-8 secretion. In words: Bradykinin B1 receptor agonist-induced secretion of IL-8 in human IMR-90 cells. Format: cell-based. The conditions noted are these: 0.1 μM Lys-[Des-Arg9]Bradykinin and 0.1 μM Sar-[D-Phe8]-des-Arg9-Bradykinin, 5 hours. An excerpt: (§1) Inhibitory Activity on Bradykinin B1 Receptor Agonist-Induced Secretion of IL-6 and IL-8 in Human IMR-90 Cells
(§2) The effect of the compound examples on secretion of the cytokine IL-6 and IL-8 was investigated in the human foetal lung fibroblast IMR-90 cell line. Here the induction of the cytokine secretion was induced by the Bradykinin B1 receptor agonists Lys-[Des-Arg9]Bradykinin (CAS 71800-36-7, Tocris Bioscience) and Sar-[D-Phe8]-des-Arg9-Bradykinin (CAS 126959-88-4, Tocris Bioscience) leading to the activation of the Bradykinin B1-driven signalling pathway. […]
(§3) IMR-90 cells were cultured in Eagle's Minimum Essential Medium (EMEM) containing 2 mM L-glutamine, 1 g/L glucose, 1.5 g/L NaHCO3, 1 mM sodium pyruvate and non-essential amino acids (ATCC, 30-2003™) supplemented with 10% FBS (Biochrom, 50615) and 50 U/mL Penicillin, 50 μg/mL Streptomycin (PAA, P11-010). […] The compound examples were serially diluted in 100% DMSO and evaluated at 8 different concentrations within the range of 3 nM and 10 μM and a final DMSO concentration of 0.4%. […] The amount of IL-6 and IL-8 in the supernatant was determined using the Human ProInflammatory Panel II (4-Plex) (MSD, K15025B) according to manufacturer's instruction. […] The cell viability was measured using the CellTiter-Glo Luminescent Assay (Promega, G7571) following the manufacturers protocol. […]

A further data set addresses T1, human B1 receptor (Homo sapiens, UniProt P46663).
T1 construct: host or cells: CHO-K1
T1 sequence (P46663 1-353): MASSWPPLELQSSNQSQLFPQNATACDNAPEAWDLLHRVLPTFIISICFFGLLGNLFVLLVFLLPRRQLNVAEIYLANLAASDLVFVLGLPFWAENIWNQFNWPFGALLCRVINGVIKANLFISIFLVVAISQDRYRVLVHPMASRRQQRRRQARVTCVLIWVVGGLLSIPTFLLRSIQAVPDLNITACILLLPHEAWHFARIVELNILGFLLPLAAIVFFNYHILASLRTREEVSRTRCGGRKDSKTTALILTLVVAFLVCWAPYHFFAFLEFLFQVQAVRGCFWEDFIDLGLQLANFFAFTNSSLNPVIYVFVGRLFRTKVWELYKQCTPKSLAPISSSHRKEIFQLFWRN
In words: Calcium flux assay (FLIPR) with recombinant CHO-K1 cells expressing human B1 receptor. The conditions noted are these: agonist Lys-(Des-Arg)-Bradykinin. Format: cell-based. The method, then: The potency to inhibit the Bradykinin B1 receptors was determined for the example compounds of this invention in a cell-based fluorescent calcium-mobilisation assay. The assay measures the ability of example compounds to inhibit Bradykinin B1 receptor agonist-induced increase of intracellular free Ca^2+ in the cell line expressing B1 receptor. Specifically, calcium indicator—loaded cells are pre-incubated in the absence or presence of different concentrations of example compounds followed by the stimulation with a selective B1 receptor agonist peptide. The change of the intracellular Ca^2+ concentration is monitored with a fluorescent plate reader FLIPR (Molecular Devices).
Calcium flux Assay (FLIPR) with recombinant cells for Bradykinin B1 receptor antagonist, either in the presence (hB1 IC50) or absence (hB1 free IC50) of 0.1% BSA in assay buffer
CHO-K1 cell line expressing human B1 receptor was purchased from Euroscreen (Gosselies, Belgium, with reference name hB1-D1). The cells were grown in Nutrient Mixture Ham's F12 (Sigma) containing 10% Foetal bovine serum (Sigma) and 400 μg/mL G418 (Sigma), 5 μg/mL puromycin (Sigma).
For the calcium flux assay, 80% confluent cells were detached from the culture vessels with Versene (Gibco), and seeded into 384-well plates (Cell binding Surface; Corning, N.Y.; #3683) at a density of 15,000 cells per well. Cells were seeded in a volume of 50 μL in medium without antibiotics and incubated overnight in a humidified atmosphere with 5% CO2 at 37° C. […] The calcium indicator loaded cells were incubated at 37° C. for 2 hrs. Extracellular dye was then removed and each well was filled with 45 μL of assay buffer. Cell plates were kept in dark until used. Example compounds were assayed at 8 concentrations in triplicate. Serial 10-fold dilutions in 100% DMSO were made at a 100-times higher concentration than the final concentration, and then diluted 1:10 in assay buffer. 5 μL of each diluted compound was added to the well of cell plates (yielding final concentration with 1% DMSO), and incubated for 30 min at 28° C. before the addition of B1 receptor agonist on the FLIPR instrument.
Agonist plates contained the agonist Lys-(Des-Arg)-Bradykinin (Bachem, Brackley) at 3.5×EC90 in assay buffer with 1% DMSO. The addition of agonist 20 μl per well to the assay plate was carried out on the FLIPR instrument while continuously monitoring Ca^2+-dependent fluorescence at 538 nm. A peptide antagonist Lys-(Des-Arg-Leu)-Bradykinin (Bachem, Brackley) at 20 µM was used to determine the full inhibition as control.
Peak fluorescence was used to determine the response to agonist obtained at each concentration of example compound by the following equation:
% Response=100*(RFU(example compound)−RFU(control)/(RFU(DMSO)−RFU(control)) • Control=full inhibition by the peptide antagonist Lys-(Des-Arg-Leu)-Bradykinin at 20 μM
The response values were plotted against the logarithm of the compound concentrations. The compounds were tested in triplicates per plate and mean values were plotted in Excel XLfit to determine IC50 values, percentage of maximal inhibition and the Hill slopes.
A general note: Calcium flux is commonly read through the fluorescence of an indicator in the cells.

In another data set the test system is stimulated IMR-90 cells. The data set can be described thus: Cell viability, CellTiter-Glo Luminescent Assay. Format: cell-based, human. The method, then: IMR-90 cells were cultured in Eagle's Minimum Essential Medium (EMEM) containing 2 mM L-glutamine, 1 g/L glucose, 1.5 g/L NaHCO3, 1 mM sodium pyruvate and non-essential amino acids (ATCC, 30-2003™) supplemented with 10% FBS (Biochrom, 50615) and 50 U/mL Penicillin, 50 μg/mL Streptomycin (PAA, P11-010). The assay was performed in EMEM and a cell density of […] IMR-90 cells/96-well. The compound examples were serially diluted in 100% DMSO and evaluated at 8 different concentrations within the range of 3 nM and 10 μM and a final DMSO concentration of 0.4%. The IMR-90 cells were incubated with the respective concentration of the compound for 30 min. […] The amount of IL-6 and IL-8 in the supernatant was determined using the Human ProInflammatory Panel II (4-Plex) (MSD, K15025B) according to manufacturer's instruction. […] Plates were washed three times with phosphate-buffered saline (PBS; 137 mM NaCl, 2.7 mM KCl, 6.5 mM Na2HP04, 1.7 mM KH2P04) containing 0.05% Tween-20 (Bio-Rad, 161-0781) and electrochemiluminescence detected using the MSD Sector Imager 6000 plate reader. The cell viability was measured using the CellTiter-Glo Luminescent Assay (Promega, G7571) following the manufacturers protocol. […] After incubation and shaking for 10 minutes luminescent signal was measured which was proportional to the amount of ATP present. […]
In general terms: In ATP-based viability assays light output follows the ATP content of the culture.

A further data set concerns IL-6 secretion. In words: Bradykinin B1 receptor agonist-induced secretion of IL-6 in human IMR-90 cells. Format: cell-based. The conditions noted are these: 0.1 μM Lys-[Des-Arg9]Bradykinin and 0.1 μM Sar-[D-Phe8]-des-Arg9-Bradykinin, 5 hours.
Text: as §1, §2, §3

For data set [1], the target named is T2, native human B1 receptors (Homo sapiens, UniProt P46663).
T2 construct: which express native human B1 receptors after induction with human IL-1; Coriell Institute; host or cells: IMR-90 human foetal lung fibroblasts, induced with human IL-1
T2 sequence (P46663 1-353): T1 sequence (P46663 1-353)
In words: Calcium flux assay (FLIPR) with IMR-90 human foetal lung fibroblasts after IL-1 induction. It counts as cell-based. Conditions: IMR-90 fibroblasts induced with human IL-1; 0.1% BSA in assay buffer; agonist Lys-(Des-Arg)-Bradykinin at EC90; read-out: hB1 IC50 IMR90. The method, then: Calcium Flux Assay (FLIPR) with Human Fibroblasts for Bradykinin B1 Receptor Antagonist (hB1 IMR-90 IC50)
The Calcium flux Assay was carried out utilising IMR-90 human foetal lung fibroblasts (American Type Culture Collection, Rockville, Md.; and Coriell Institute, Camden, N.J.), which express native human B1 receptors after induction with human IL-1[…].
The fibroblasts were cultured in complete growth media comprised of Dulbecco's modified Eagle's medium (DMEM; Sigma) containing 10% foetal bovine serum, 4 mM L-glutamine, and 1% nonessential amino acids. The cells were maintained in a humidified atmosphere with 5% CO2 at 37° C. and were sub-cultured at a ratio of 1:3, every other day.
For the assay, IMR-90 fibroblasts were harvested using TrypLE Express (GIBCO/Invitrogen) and seeded into 384-well plates (Corning Cellbinding Surface, Cat. 3683) at a density of 15000 cells/well. The following day, cells were treated with 0.35 ng/mL human IL-1[…] in 10% FBS/MEM for 3 h to up-regulate B1 receptors. Induced cells were loaded with fluorescent calcium indicator by incubation with 2.5 μM Fluo-4/AM (Invitrogen) at 37° C., 5% CO2 for 2 h in the presence of 2.5 mM probenecid in 1% FBS/MEM. Extracellular dye was removed by washing with assay buffer (2.5 mM probenecid and 0.1% BSA in 20 mM HEPES/HBSS without bicarbonate or phenol red, pH 7.5). Example compounds were assayed at 8 concentrations in triplicate. After addition of example compounds to the cell plate and incubation for 30 min at 28° C., the addition of B1 agonist Lys-(Des-Arg)-Bradykinin (Bachem, Brackley) at a final concentration of EC90 was carried out on the FLIPR instrument while continuously monitoring Ca^2+-dependent fluorescence at 538 nm. A peptide antagonist Lys-(Des-Arg-Leu)-Bradykinin (Bachem, Brackley) at 20 μM was used to determine the full inhibition as control. IC50 values were determined by the same way described for the FLIPR assay with recombinant cells.

For data set [2] the following is noted: due to metabolic liability; prior art; cited from earlier work.
[3] abbreviates: absence of 0.1% BSA in assay buffer, read-out: hB1 free IC50.

Usually IC50 stands for the concentration at which inhibition is half-maximal. For `O=C(O)c1cc(NC(=O)C2CC2c2cccc(Cl)c2)ccc1-c1cnn(C2CCC2)c1` (racemic) [Example 1, 5-({[2-(3-chlorophenyl)cyclopropyl]carbonyl}amino)-2-(1-cyclobutyl-1H-pyrazol-4-yl)benzoic acid], the IC50 was 509 nM with IL-8 secretion; 207 nM on human B1 receptor (setting [3]); 65 nM at human B1 receptor (presence of 0.1% BSA in assay buffer, read-out: hB1 IC50); 99 nM in the data set with IL-6 secretion. For the same compound, in the data set on stimulated IMR-90 cells, the “effect on the cell viability” value is “no effect”.

As to `CCC(F)(F)c1ccc(-c2ccc(NC(=O)C3CC3c3ccc(Cl)cc3)cc2C(=O)O)cn1` (racemic) [Example 23, 5-({[2-(4-Chlorophenyl)cyclopropyl]carbonyl}amino)-2-[6-(1,1-difluoropropyl)pyridin-3-yl]benzoic acid], the IC50 was found to be 309 nM at human B1 receptor (setting [3]) and 529 nM in data set [1].

As to `O=C(O)c1cc(NC(=O)C2CC2c2ccc(Cl)cc2)cc(F)c1-c1ccc(C(F)(F)F)nc1` (racemic) [Example 24, 5-({[2-(4-chlorophenyl)cyclopropyl]carbonyl}amino)-3-fluoro-2-[6-(trifluoromethyl)pyridin-3-yl]benzoic acid], the IC50 amounted to 1080 nM on human B1 receptor (setting [3]) and 2330 nM in data set [1].

In the case of `O=C(O)c1cc(NC(=O)C2CC2c2ccc(Cl)cc2)c(F)cc1-c1ccc(C(F)(F)F)nc1` (racemic) [Example 25, 5-({[2-(4-chlorophenyl)cyclopropyl]carbonyl}amino)-4-fluoro-2-[6-(trifluoromethyl)pyridin-3-yl]benzoic acid], the results for the IC50 (on human B1 receptor (setting [3]); in data set [1]) were 1260 nM and 4730 nM, respectively.

`C[C@@H](NC(=O)C1(NC(=O)C(F)(F)F)CC1)c1ccc(-c2cccc(Cl)c2C(=O)O)cc1F` [MK-0686]: the pharmacokinetic profile result in data set [2] is “suboptimal”.

Consider “(+)-5-({[trans-2-(4-chlorophenyl)cyclopropyl]carbonyl}amino)-2-(1-cyclobutyl-1H-pyrazol-4-yl)-3-fluorobenzoic acid [Example 3]”, for which the IC50 at human B1 receptor (setting [3]) stood at 10 nM; in data set [1] it was 51 nM.
